Test results published in US20250129088A1, “CEREBLON E3 UBIQUITIN LIGASE INHIBITOR” (Gan & Lee Pharmaceuticals Co., Ltd., priority 2022, published 2025).

Key:
Format in all cases: cell-based
A549 cells = assay: A549 cell proliferation inhibition, CCK-8; details: Homo sapiens, 96 h, A549, 4 days
Protocol: The complete medium required for A549 cells is F-12K (ATCC, Product number: 30-2004) basal medium containing 10% fetal bovine serum. A549 cells were seeded in a 96-well plate at a density of 2,800 cells/well, and the next day, different concentrations of the compound of the present invention and a positive control sample Ceritinib (source: Bide Pharmaceuticals) were prepared to treat the cells. The cells were incubated at 37° C., 5% CO2 cell incubator for 4 days. Cell viability was detected using the CCK-8 kit (Beyotime, Product number: C0040) according to the manufacturer's instructions. According to the inhibition rate, the GraphPad Prism software was used to calculate the IC50 value of each compound for 4 days, and the results are shown in Table 3.

HeLa cells = assay: HeLa cell proliferation inhibition, CCK-8; details: Homo sapiens, 72 h, 3 days
Protocol: The complete medium required for HeLa cells is DMEM high glucose (Gibco, Product number: 11995-065) basal medium containing 10% fetal bovine serum. HeLa cells were seeded in a 96-well plate at a density of 4,000 cells/well, and the next day, different concentrations of the compound of the present invention and the positive control sample Ceritinib (source: Bide Pharmaceuticals) were prepared to treat the cells. The cells were incubated at 37° C., 5% CO2 cell culture incubator for 3 days. Cell viability was detected using the CCK-8 kit (Beyotime, Product number: C0040) according to the manufacturer's instructions. According to the inhibition rate, GraphPad Prism software was used to calculate the IC50 value of each compound for 3 days, and the results are shown in Table 2.

K562 cells = assay: K562 cell proliferation inhibition, CCK-8; details: Homo sapiens, 96 h, K562, 4 days, Table 12, positive control dBET6
Protocol: The complete medium required for K562 cells is IMDM (ATCC, Product number: 30-2005) basal medium containing 10% fetal bovine serum. K562 cells were seeded in a 96-well plate at a density of 7,500 cells/well, and different concentrations of the compound of the present invention and positive control samples Alisertib (source: Bide Pharmaceuticals) and dBET6 (source: Bide Pharmaceuticals) were prepared to treat the cells. The cells were incubated at a 37° C., 5% CO2 cell culture incubator for 4 days.
Cell viability was detected using the CCK-8 kit (Beyotime, Product number: C0040) according to the manufacturer's instructions. According to the inhibition rate, GraphPad Prism software was used to calculate the IC50 value of each compound for 4 days, and the results are shown in Table 11-12.

MOLM-13 cells = assay: MOLM-13 cell proliferation inhibition, CCK-8; details: Homo sapiens, 96 h, MOLM-13, 4 days
Protocol: The complete medium required for MOLM-13 cells is 1640 (ATCC, Product number: 30-2001) basal medium containing 20% fetal bovine serum. MOLM-13 cells were seeded in a 96-well plate at a density of 7,500 cells/well, and different concentrations of the compounds of the present invention were prepared to treat the cells at the same time. The cells were incubated in a 37° C., 5% CO2 cell culture incubator for 4 days. Cell viability was detected using the CCK-8 kit (Beyotime, Product number: C0040) according to the manufacturer's instructions. According to the inhibition rate, GraphPad Prism software was used to calculate the IC50 value of each compound for 4 days, and the results are shown in Table 9-10.

MV-4-11 cells = assay: MV-4-11 cell proliferation inhibition, CCK-8; details: Homo sapiens, MV4-11, 96 h, MV-4-11, 4 days, Table 7, positive control Palbociclib
Protocol: The complete medium required for MV-4-11 cells is IMDM (ATCC, Product number: 30-2005) basal medium containing 10% fetal bovine serum. MV-4-11 cells were seeded in a 96-well plate at a density of 7,500 cells/well, and different concentrations of the compound of the present invention and positive control samples Alisertib (source: Bide Pharmaceuticals), Palbociclib (source: Bide Pharmaceuticals), Ibrutinib (source Bide Pharmaceuticals) treated cells. The cells were incubated in a 37° C., 5% CO2 cell incubator for 4 days. Cell viability was detected using the CCK-8 kit (Beyotime, Product number: C0040) according to the manufacturer's instructions. According to the inhibition rate, GraphPad Prism software was used to calculate the IC50 value of each compound for 4 days, and the results are shown in Table 6-8.

SMILES | IC50 (MOLM-13 cells; Table 10) | IC50 (MV-4-11 cells) | also measured
Cc1cc(Nc2ncc(Cl)c(Nc3ccccc3S(=O)(=O)C(C)C)n2)c(OC(C)C)cc1C1CCNCC1 [Ceritinib, reference compound] |  |  | IC50 (A549 cells): 4310 nM; IC50 (HeLa cells): 5990 nM
Cc1nc(Nc2ncc(C(=O)Nc3c(C)cccc3Cl)s2)cc(N2CCN(CCOCCC(=O)N3CCC4(CCc5cc6c(cc5O4)C(=O)N(C4CCC(=O)NC4=O)C6=O)CC3)CC2)n1 (stereo not shown) [PROTAC 9, N-(2-chloro-6-methylphenyl)-2-((6-(4-(2-(3-(7′-(2,6-dioxopiperidin-3-yl)-6′,8′-dioxo-4′,6′,7′,8′-tetrahydro-3′H-spiro[piperidine-4,2′-pyrano[2,3-f]isoindol]-1-yl)-3-oxopropoxy)ethyl)piperazin-1-yl)-2-methylpyrimidin-4-yl)amino)thiazole-5-carboxamide] |  |  | IC50 (K562 cells): 16 nM; IC50 (MOLM-13 cells; Table 9): 1110 nM
Cc1nc(Nc2ncc(C(=O)Nc3c(C)cccc3Cl)s2)cc(N2CCN(CCOCCC(=O)N3CCC4(CC3)COc3cc5c(cc3C4)C(=O)N(C3CCC(=O)NC3=O)C5=O)CC2)n1 (stereo not shown) [PROTAC 10, N-(2-chloro-6-methylphenyl)-2-((6-(4-(2-(3-(7′-(2,6-dioxopiperidin-3-yl)-6′,8′-dioxo-4′,6′,7′,8′-tetrahydro-2′H-spiro[piperidine-4,3′-pyrano[2,3-f]isoindole]-1-yl)-3-oxopropoxy)ethyl)piperazin-1-yl)-2-methylpyrimidin-4-yl)amino)thiazole-5-carboxamide] |  |  | IC50 (K562 cells): 17 nM; IC50 (MOLM-13 cells; Table 9): 1050 nM
Cc1nc(Nc2ncc(C(=O)Nc3c(C)cccc3Cl)s2)cc(N2CCN(CCOCCC(=O)N3CCC4(CC3)COc3cc5c(cc34)C(=O)N(C3CCC(=O)NC3=O)C5=O)CC2)n1 (stereo not shown) [PROTAC 12, N-(2-chloro-6-methylphenyl)-2-((6-(4-(2-(3-(6-(2,6-dioxopiperidin-3-yl)-5,7-dioxo-6,7-dihydro-2H,5H-spiro[furo[2,3-f]isoindole-3,4′-piperidin]-1′-yl)-3-oxopropoxy)ethyl)piperazin-1-yl)-2-methylpyrimidin-4-yl)amino)thiazole-5-carboxamide] |  |  | IC50 (K562 cells): 40 nM; IC50 (MOLM-13 cells; Table 9): 4770 nM
Cc1cc(Nc2ncc(Cl)c(Nc3ccccc3S(=O)(=O)C(C)C)n2)c(OC(C)C)cc1C1CCN(CCOCCC(=O)N2CCC3(CCc4cc5c(cc4O3)CN(C3CCC(=O)NC3=O)C5=O)CC2)CC1 (stereo not shown) [PROTAC 25] |  |  | IC50 (A549 cells): 7020 nM; IC50 (HeLa cells): 2190 nM
Cc1cc(Nc2ncc(Cl)c(Nc3ccccc3S(=O)(=O)C(C)C)n2)c(OC(C)C)cc1C1CCN(CCOCCC(=O)N2CCC3(CCc4cc5c(cc4O3)C(=O)N(C3CCC(=O)NC3=O)C5)CC2)CC1 (stereo not shown) [PROTAC 26, 3-(1-(3-(2-(4-(4-((5-chloro-4-((2-(isopropylsulfonyl)phenyl)amino)pyrimidin-2-yl)amino)-5-isopropoxy-2-methylphenyl)piperidin-1-yl)ethoxy)propionyl)-8′-oxo-3′,4′,6′,8′-tetrahydro-7′H-spiro[piperidine-4,2′-pyrano[2,3-f]isoindole]-7′-yl)piperidine-2,6-dione] |  |  | IC50 (A549 cells): 4270 nM; IC50 (HeLa cells): 4330 nM

Second part, led by results:

IC50 (MOLM-13 cells; Table 10) | IC50 (MV-4-11 cells) | SMILES | also measured
12400 nM | 12700 nM | CC(=O)c1c(C)c2cnc(Nc3ccc(N4CCN(CCOCCC(=O)N5CC6(CCc7cc8c(cc7O6)C(=O)N(C6CCC(=O)NC6=O)C8=O)C5)CC4)cn3)nc2n(C2CCCC2)c1=O (stereo not shown) [PROTAC 39, 1-(3-(2-(4-(6-((6-acetyl-8-cyclopentyl-5-methyl-7-oxo-7,8-dihydropyridone[2,3-d]pyrimidin-2-yl)amino)pyridin-3-yl)piperazin-1-yl)ethoxy)propionyl)-7′-(2,6-dioxopiperidin-3-yl)-3′,4′-dihydro-6′H-spiro[azetidine-3,2′-pyrano[2,3-f]isoindole]-6′,8′(7′ H)-dione] | 
4870 nM |  | CC(=O)c1c(C)c2cnc(Nc3ccc(N4CCN(CCOCCC(=O)N5CCC6(CC5)COc5cc7c(cc5C6)C(=O)N(C5CCC(=O)NC5=O)C7=O)CC4)cn3)nc2n(C2CCCC2)c1=O (stereo not shown) [PROTAC 40, 1-(3-(2-(4-(6-((6-acetyl-8-cyclopentyl-5-methyl-7-oxo-7,8-dihydropyridone[2,3-d]pyrimidin-2-yl)amino)pyridin-3-yl)piperazin-1-yl)ethoxy)propionyl)-7′-(2,6-dioxopiperidin-3-yl)-2′H-spiro[piperidine-4,3′-pyrano[2,3-f]isoindole]-6′,8′(4′H,7′H)-dione] | 
2190 nM | 2160 nM | CC(=O)c1c(C)c2cnc(Nc3ccc(N4CCN(CCOCCC(=O)N5CCC6(CC5)COc5cc7c(cc56)C(=O)N(C5CCC(=O)NC5=O)C7=O)CC4)cn3)nc2n(C2CCCC2)c1=O (stereo not shown) [PROTAC 41, 1′-(3-(2-(4-(6-((6-acetyl-8-cyclopentyl-5-methyl-7-oxo-7,8-dihydropyridone[2,3-d]pyrimidin-2-yl)amino)pyridin-3-yl)piperazin-1-yl)ethoxy)propionyl)-6-(2,6-dioxopiperidin-3-yl)-6-hydro-2H,5H-spiro[furo[2,3-f]isoindole-3,4′-piperidine]-5,7-dione] | 
830 nM | 940 nM | CC(=O)c1c(C)c2cnc(Nc3ccc(N4CCN(CCOCCC(=O)N5CCC6(CCc7cc8c(cc7O6)C(=O)N(C6CCC(=O)NC6=O)C8)CC5)CC4)cn3)nc2n(C2CCCC2)c1=O (stereo not shown) [PROTAC 42, 3-(1-(3-(2-(4-(6-((6-acetyl-8-cyclopentyl-5-methyl-7-oxo-7,8-dihydropyridone[2,3-d]pyrimidin-2-yl)amino)pyridin-3-yl)piperazin-1-yl)ethoxy)propionyl)-8′-oxo-3′,4′,6′,8′-tetrahydro-7′H-spiro[piperidine-4,2′-pyrano[2,3-f]isoindole]-7′-yl)piperidine-2,6-dione] | 
1870 nM | 2490 nM | CC(=O)c1c(C)c2cnc(Nc3ccc(N4CCN(CCOCCC(=O)N5CCC6(CCc7cc8c(cc7O6)CN(C6CCC(=O)NC6=O)C8=O)CC5)CC4)cn3)nc2n(C2CCCC2)c1=O (stereo not shown) [PROTAC 43, 3-(1-(3-(2-(4-(6-((6-acetyl-8-cyclopentyl-5-methyl-7-oxo-7,8-dihydropyridone[2,3-d]pyrimidin-2-yl)amino)pyridin-3-yl)piperazin-1-yl)ethoxy)propionyl)-6′-oxo-6′,8′-dihydro-3′H,7′H-spiro[piperidine-4,2′-[1,4]dioxino[2,3-f]isoindole]-7′-yl)piperidine-2,6-dione] | 
1310 nM | 3310 nM | CC(=O)c1c(C)c2cnc(Nc3ccc(N4CCN(CCOCCC(=O)N5CC6(CCc7cc8c(cc7O6)C(=O)N(C6CCC(=O)NC6=O)C8)C5)CC4)cn3)nc2n(C2CCCC2)c1=O (stereo not shown) [PROTAC 44, 3-(1-(3-(2-(4-(6-((6-acetyl-8-cyclopentyl-5-methyl-7-oxo-7,8-dihydropyridone[2,3-d]pyrimidin-2-yl)amino)pyridin-3-yl)piperazin-1-yl)ethoxy)propionyl)-8′-oxo-3′,4′,6′,8′-tetrahydro-7′H-spiro[azetidine-3,2′-pyrano[2,3-f]isoindole]-7′-yl)piperidine-2,6-dione] | 
4340 nM | 4250 nM | CC(=O)c1c(C)c2cnc(Nc3ccc(N4CCN(CCOCCC(=O)N5CC6(CCc7cc8c(cc7O6)CN(C6CCC(=O)NC6=O)C8=O)C5)CC4)cn3)nc2n(C2CCCC2)c1=O (stereo not shown) [PROTAC 45, 3-(1-(3-(2-(4-(6-((6-acetyl-8-cyclopentyl-5-methyl-7-oxo-7,8-dihydropyridone[2,3-d]pyrimidin-2-yl)amino)pyridin-3-yl)piperazin-1-yl)ethoxy)propionyl)-6′-oxo-3′,4′,6′,8′-tetrahydro-7′H-spiro[azetidine-3,2′-pyrano[2,3-f]isoindole]-7′-yl)piperidine-2,6-dione] | 
